# Data taken from patent publication US12497614B2, “Compositions and methods for editing beta-globin for treatment of hemaglobinopathies” (Vertex Pharmaceuticals Incorporated, priority 2020, dated 2025).
# Strand notation (5' to 3'): a small letter for the sugar, then the base; units joined by * are phosphorothioate-linked, units joined directly phosphodiester-linked; [ ] holds rarer units or linkages, { } end groups; capitals alone tell only the bases. m = 2'-O-methyl; r = 2'-OH (RNA)
# B1: T107 gRNA: intron-targeting gRNA, spacer SEQ ID NO: 3, sgRNA SEQ ID NO: 4 (nucleic acid)
# guide: mU*mC*mC*rArCrArUrGrCrCrCrArGrUrUrUrCrUrArUrGrUrUrUrUrArGrArGrCrUrArGrArArArUrArGrCrArArGrUrUrArArArArUrArArGrGrCrUrArGrUrCrCrGrUrUrArUrCrArArCrUrUrGrArArArArArGrUrGrGrCrArCrCrGrArGrUrCrGrGrUrGrCmU*mU*mU*rU
# B2: T223 gRNA: intron-targeting gRNA, spacer SEQ ID NO: 51, sgRNA SEQ ID NO: 52 (nucleic acid)
# guide: mU*mA*mA*rGrGrArGrArCrCrArArUrArGrArArArCrUrGrUrUrUrUrArGrArGrCrUrArGrArArArUrArGrCrArArGrUrUrArArArArUrArArGrGrCrUrArGrUrCrCrGrUrUrArUrCrArArCrUrUrGrArArArArArGrUrGrGrCrArCrCrGrArGrUrCrGrGrUrGrCmU*mU*mU*rU
# B3: R02 gRNA: exon-targeting gRNA for exon 1 of HBB, spacer SEQ ID NO: 14, sgRNA SEQ ID NO: 15 (nucleic acid)
# guide: mC*mU*mU*rGrCrCrCrCrArCrArGrGrGrCrArGrUrArArGrUrUrUrUrArGrArGrCrUrArGrArArArUrArGrCrArArGrUrUrArArArArUrArArGrGrCrUrArGrUrCrCrGrUrUrArUrCrArArCrUrUrGrArArArArArGrUrGrGrCrArCrCrGrArGrUrCrGrGrUrGrCmU*mU*mU*rU
# Tests used:
# [1] = tested on: HBB gene locus in CD34+ HSPCs; assay: HDR efficiency with DNA-PK inhibitors for editing the HBB gene in CD34+ HSPCs; NGS (Example 4); format: cell-based, human; conditions: for % HDR / % INDELs: 48 hours
# Experimental: The cells were transduced with AAV donor template for 1 hour at 37° C. prior to electroporation. AAV-encoded homology donor template referred to as “AAV.310”, which is identified by sequence in Table 8. The AAV.310 donor template encodes a SCD mutation, specifically valine at the 6th codon downstream the HBB start codon (E6V). The cells were treated with AAV at a dose of 10,000 MOI.
# Edited cells were evaluated for viability using trypan blue, and for incorporation of gene-edits at 2 days post-electroporation. The efficiency of HDR repair for introducing an E6V mutation in the HBB gene was quantified by NGS assay as described in Example 1, and the frequency of INDELs induced at the T107 cut site was also evaluated by NGS analysis.
# The INDELs species identified in edited cells were further evaluated to determine frequency of repair by NHEJ or MMEJ repair pathways. An INDEL of ±1 nt was considered due to NHEJ repair; a deletion of −9 nt was considered due to MMEJ repair based on the microhomology present on either side of the T107 cut site. Based on percentage of total reads corresponding to these INDEL species, the ratio of gene edits due to NHEJ and MMEJ repair was evaluated. […] Thus, reduced frequency of INDELs with treatment of compound 296 or i53 is largely due to suppression of the NHEJ repair pathway.
# CD34+ HSPCs [2] = assay: Cell growth and viability (trypan blue) of edited CD34+ HSPCs during differentiation (Example 5); conditions: day 0 to day 18 post-editing; inhibitor 1 or 3 μM, i53 1 μg mRNA; data not shown
# Experimental: Briefly, frozen CD34+ HSPCs isolated from Plerixafor mobilized peripheral blood, obtained from healthy human donors were thawed. The cells were seeded in CD34 cell media at a cell density of 2×10^5 cells/mL. Cells were cultured at 37° C. under normoxic conditions (i.e., oxygen 20%). Gene-editing was performed following two days of in vitro culture. For editing, 5×10^5 CD34+ HSPCs were electroporated with RNP containing 200 μg/ml Cas9 and 200 μg/ml T107 sgRNA. […] The cells were transduced with AAV.310, 1 hour prior to electroporation, at a dose of 10,000 MOI. The cells were plated in CD34 cell medium containing Compound 296 or Compound 984 immediately following the electroporation, at a concentration of 1 μM or 3 μM for 48 hours. […] Post electroporation cells were resuspended in CD34 cell medium at a density of 2-5×10^5 cells/ml and incubated at 37° C. for 48 hours.
# Following editing, cells were differentiated to erythrocytes. Briefly, cells were plated in fresh CD34 media at a density of 2×10^5 cells/mL, and re-plated at similar density in fresh CD34 media on days 3 and 5 post-editing. On day 7 and 10 post-editing, the cells were incubated in Phase II media at a density of 2.5×10^5 and 1×10^6 cells/mL respectively. On day 12 post-editing, the cells were incubated in Phase III media at a density of 1×10^6 cells/mL. On day 14 cells were plated at a density of 2×10^6 cells/ml in Phase III media and maintained till day 18 at 37° C. Cell growth was measured at various time points between day 0 and day 18 post-editing, and the percentage of viable cells was measured by staining with tryphan blue.
# [3] = tested on: HBB gene locus and mRNA transcribed from HBB in CD34+ HSPCs; assay: Editing efficiency in genomic DNA and in HBB mRNA (Example 5); format: cell-based, human; conditions: genomic DNA, 48 hours post electroporation; 1 μM or 3 μM
# Experimental: At 48 hours post electroporation genomic DNA was isolated from the edited cells and HDR to introduce the sickle mutation and INDEL frequencies were evaluated using next gene sequencing and computational analysis. On day 10 of differentiation, incorporation of the SCD mutation and frequency of INDELs present in mRNA transcribed from the HBB gene locus of edited cells was determined using RNA amplicon sequencing.
# CD34+ HSPCs [4] = assay: Globin and hemoglobin analysis by HPLC on day 18 of differentiation (Example 5); format: cell-based, human; conditions: T107 RNP+AAV.310 alone or combined with the inhibitor
# Experimental: (§1) Following editing, cells were differentiated to erythrocytes.
# Additionally, on day 18 post-editing, expression of globin monomers was assessed in differentiated cells by HPLC as described in Example 3. […] Accordingly, the editing was sufficient to both introduce the SCD mutation in HBB and result in expression of sickle globin.
# Furthermore, production of hemoglobin tetramers was also evaluated by HPLC. The analysis included quantification of HbS tetramer containing sickle-globin (α2β(E6V)2), HbF tetramer (α2γ2), HbA (α2β2), and HbA2 (α2δ2) produced by edited cells. […] Thus, the editing was also sufficient to alter hemoglobin output following in vitro differentiation.
# CD34+ HSPCs [5] = assay: Erythrocyte functionality: enucleation and cell-surface markers by flow cytometry (Example 5); format: cell-based, human; conditions: T107 RNP+AAV.310 alone or combined with the inhibitor
# Experimental: as §1
# The ability of edited cells to differentiate to functional erythrocytes was assessed by determining expression of erythrocyte-associated cell surface markers and enucleation using flow cytometry on day 12 and 18 post editing. Briefly, 4×10^5 cells were obtained, and half were stained for erythrocyte cell-surface markers and half were used for detection of enucleation. For staining cell-surface markers, the cells were incubated in PBS containing 1% human serum albumin (PBS-A) and an antibody cocktail of anti-CD233(BRIC6-Band3)-FITC, anti-CD71-PE, anti-CD235a(GlyA)-PE/Cy7, and anti-CD49d (α4)-VioBlue. For detection of enucleation, 2 drops of NucRed nuclear staining reagent was added to 1 mL PBS-A, and 100 μL was added to plated cells. Following incubation, both cell samples were labeled with Sytox Blue solution (1:1000 dilution in PBS-A) for live/dead analysis. Samples were then assessed by flow cytometry
# HBB gene in CD34+ HSPCs = assay: Comparison of guides targeting intron 1 of HBB with AAV donor templates (Example 8); format: cell-based, human; conditions: with each of AAV.309, AAV.310, AAV.311; day 2 post-editing
# Experimental: Healthy donor CD34+ HSPCs derived from plerixafor-mobilized peripheral blood were cultured as described in Example 1 for two days prior to editing. Editing was performed using 1×10^6 CD34+ HSPCs per treatment group. The cells were electroporated with RNP containing the following 20 μg SpCas9 and 20 μg T107 sgRNA, 20 μg T223 sgRNA, or 20 μg R02 sgRNA. […] The cells were transduced with AAV6 donor templates encoding a SCD mutation (AAV.309; AAV.310; AAV.311) by incubating the cells with AAV at a dose of 10,000 MOI for one hour prior to electroporation. Control cells were transduced with AAV only and electroporated in the absence of RNP.
# On day 2 post-editing, the efficiency of HDR repair for inducing a SCD mutation in the HBB gene was quantified by NGS assay as described in Example 1.
# [6] = tested on: genomic sites undergoing off-target cleavage; assay: GUIDE-Seq screen of candidate off-target sites; format: cell-based, human
# Source text: The second approach was to screen candidate off-target sites using GUIDE-Seq (see, e.g., Tsai et al (2015) NAT. BIOTECHNOL. 33:187). Based on this approach, the following number of genomic sites were identified as undergoing off-target cleavage per each gRNA: • (i) 36 GUIDE-Seq off-target sites for R02 gRNA; • (ii) 12 GUIDE-Seq off-target sites for […]; and • (iii) 43 GUIDE-Seq off-target sites for T223 gRNA.
# [7] = T107 RNP + AAV.310 + 0.012 μM compound
# [8] = T107 RNP + AAV.310 + 0.037 μM compound
# [9] = T107 RNP + AAV.310 + 0.04 μM compound
# [10] = T107 RNP + AAV.310 + 3.3 μM compound
# [11] = T107 RNP + AAV.310 + 10 μM compound
molecule,measurement,setting,value
CNC(=O)c1ccnc2c([C@H](C)CNc3cc(-c4cnc(C)nc4)ncn3)cccc12 [Compound 296],% HDR,[1]; [7],40%
same,% INDELs,[1]; [7],45%
same,% HDR,[1]; [8],39%
same,% INDELs,[1]; [8],46%
same,% HDR,[1]; [9],40%
same,% INDELs,[1]; [9],42%
same,% HDR,[1]; [10],55%
same,% INDELs,[1]; [10],27%
same,% HDR,[1]; [11],57%
same,% INDELs,[1]; [11],25%
same,reduction of the frequency of INDELs at the T107 cut site compared to control cells,[1]; T107 RNP+AAV.310 with DNA-PK inhibitor,approximately 1.6 fold
same,INDEL species due to MMEJ repair (deletion of −9 nt),"[1]; T107 RNP+AAV.310, Compound 296 at 10 μM, i53 at 1 μg mRNA",no substantial reduction
same,decrease in INDELs due to NHEJ repair (INDEL of ±1 nt),"[1]; T107 RNP+AAV.310, Compound 296 at 10 μM, i53 at 1 μg mRNA, vs DMSO",≤ 3 fold
same,cell growth over time or percent viability vs T107 RNP+AAV.310 edited cells,CD34+ HSPCs [2],No difference
same,frequency of INDELs at the T107 cut site compared to cells edited with T107 RNP+AAV.310 only,[3],decreased
same,level of HDR repair compared to cells edited with T107 RNP+AAV.310 only,[3],increased
same,HbA production compared to control cells,CD34+ HSPCs [4],decreased
same,HbS production compared to control cells,CD34+ HSPCs [4],increased
same,expression of sickle-globin compared to control cells,CD34+ HSPCs [4],increased
same,levels of enucleation vs control cells,CD34+ HSPCs [5],comparable
B1,levels of HDR for introducing the SCD mutation,HBB gene in CD34+ HSPCs,similar
same,GUIDE-Seq off-target sites (number),[6],12
B2,levels of HDR for introducing the SCD mutation,HBB gene in CD34+ HSPCs,similar
same,GUIDE-Seq off-target sites (number),[6],43
B3,GUIDE-Seq off-target sites (number),[6],36
